Reference: patent US8415469B2, “Compounds and methods for kinase modulation, and indications therefor” (Plexxikon Inc., priority 2005, dated 2013)

Assays:
Type in all cases: biochemical
Yes = molecular target: T1, Yes (Homo sapiens, UniProt P07947); assay: Z'-Lyte FRET kinase assay (Invitrogen), Yes; conditions: read-out: IC50, activity toward kinase Yes
T1 construct: purchased Invitrogen (Carlsbad, Calif.), screening service
Summary of the method: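 Read-out is the coumarin-to-fluorescein emission ratio, which rises when unphosphorylated peptide is cleaved by the development protease. Reactions contain serially diluted compound, 2 μM peptide and 10 μM ATP and run for 1 h at room temperature before 1 h development.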

B-Raf V600E = molecular target: T2, B-Raf V600E (Homo sapiens, UniProt P15056, V600E); assay: AlphaScreen kinase assay, B-Raf V600E; conditions: read-out: IC50, activity toward kinase B-Raf V600E
T2 construct: P4254. pFastBacBD-CDC37 BRAF D437-K722-X, V600E; His6 with pFastBac HT leader (TEV site) (N); made in house; host or cells: Sf9 (baculovirus; chaperone CDC37 co-expressed)
T2 sequence (P15056 with tags, fused parts or gaps V600E): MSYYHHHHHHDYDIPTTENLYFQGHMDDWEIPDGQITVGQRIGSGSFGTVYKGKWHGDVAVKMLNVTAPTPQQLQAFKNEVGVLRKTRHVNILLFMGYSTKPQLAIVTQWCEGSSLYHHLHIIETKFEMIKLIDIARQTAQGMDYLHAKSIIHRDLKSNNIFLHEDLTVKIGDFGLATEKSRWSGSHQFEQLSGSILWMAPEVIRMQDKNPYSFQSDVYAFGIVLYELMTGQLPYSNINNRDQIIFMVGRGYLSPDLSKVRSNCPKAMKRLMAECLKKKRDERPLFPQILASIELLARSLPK

EphB2 = molecular target: T3, EphB2 (Homo sapiens, UniProt P29323); assay: Z'-Lyte FRET kinase assay (Invitrogen), EphB2; conditions: read-out: IC50, activity toward kinase EphB2
T3 construct: purchased Invitrogen (assay run by Invitrogen)
T3 sequence (P29323 19-1055): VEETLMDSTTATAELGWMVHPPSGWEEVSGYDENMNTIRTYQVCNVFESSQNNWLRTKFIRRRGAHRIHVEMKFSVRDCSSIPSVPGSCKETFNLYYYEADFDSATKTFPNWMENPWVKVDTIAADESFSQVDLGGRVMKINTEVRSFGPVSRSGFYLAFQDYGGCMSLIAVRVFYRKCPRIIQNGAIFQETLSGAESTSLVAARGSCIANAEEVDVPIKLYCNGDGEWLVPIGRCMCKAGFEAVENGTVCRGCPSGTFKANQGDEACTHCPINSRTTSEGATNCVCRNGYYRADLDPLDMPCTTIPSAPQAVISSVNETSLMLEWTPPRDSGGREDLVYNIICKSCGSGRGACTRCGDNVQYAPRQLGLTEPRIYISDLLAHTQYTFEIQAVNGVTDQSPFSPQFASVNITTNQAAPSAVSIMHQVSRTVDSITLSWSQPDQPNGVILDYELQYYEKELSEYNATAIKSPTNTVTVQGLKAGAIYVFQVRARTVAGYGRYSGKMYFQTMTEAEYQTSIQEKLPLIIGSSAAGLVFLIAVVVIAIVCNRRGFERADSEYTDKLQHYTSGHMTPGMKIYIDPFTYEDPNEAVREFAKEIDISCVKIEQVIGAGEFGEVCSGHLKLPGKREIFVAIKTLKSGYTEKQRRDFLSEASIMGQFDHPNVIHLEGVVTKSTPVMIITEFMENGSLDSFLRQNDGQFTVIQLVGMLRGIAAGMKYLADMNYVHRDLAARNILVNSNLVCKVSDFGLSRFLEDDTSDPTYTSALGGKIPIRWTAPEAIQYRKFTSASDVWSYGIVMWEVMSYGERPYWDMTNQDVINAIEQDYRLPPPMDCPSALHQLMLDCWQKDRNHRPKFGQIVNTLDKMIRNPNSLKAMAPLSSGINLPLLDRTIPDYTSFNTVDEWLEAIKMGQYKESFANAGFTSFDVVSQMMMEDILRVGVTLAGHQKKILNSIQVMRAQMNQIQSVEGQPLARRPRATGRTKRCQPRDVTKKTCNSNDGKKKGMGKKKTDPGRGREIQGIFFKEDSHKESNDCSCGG
From the text: The effect of potential modulators of kinase activity can be measured in a variety of different assays known in the art. For example, direct radiometric, indirect FRET or AlphaScreen assays may be used to assess the level of phosphorylation of a substrate in the presence of test compounds in order to determine the inhibitory affect of the compound on the kinase. Invitrogen (Carlsbad, Calif.) uses a FRET based assay for Btk, EGFR, EphB2, Flt3, lrak4, Kdr, MAP2K1, MAPKAPK2, PDGFRB, PKC theta, Stk6 and Yes. For these assays, compounds of the invention were screened by Invitrogen using Z′-Lyte™ kinase assay.
Briefly, the Invitrogen kinase assay involves use of a specific peptide substrate optimized for each kinase, containing a fluorophore at each end that make up the FRET pair. The peptide sensitivity to proteolytic cleavage depends on phosphorylation of the peptide. Non-phosphorylated peptide is cleaved by a protease while peptide phosphorylated by the kinase is not cleaved. Cleavage of the peptide disrupts the FRET between the donor (coumarin) and acceptor (fluorescein) fluorophores, resulting in an increase in the ratio of donor emission to acceptor emission. The emission ratio of coumarin to fluorescein is used to assess the reaction progress. The extent of phosphorylation is determined from the emission ratio, which is low when the kinase is active (phosphorylated peptide is not cleaved, FRET pair connected) or higher for inhibited kinase (non-phosphorylated peptide is cleaved, FRET pair separated). Thus, the assay involves a kinase reaction in the presence of varying concentrations of a given compound, a development reaction with site specific protease, and detection of the fluorescent emission ratio of coumarin and fluorscein. […] Reaction conditions for each kinase are determined to provide optimal reaction times, incubation temperature, kinase and ATP concentrations. Test samples are made up in 1× kinase buffer (50 mM HEPES pH 7.5, 50 mM MgCl2, 5 mM EGTA, 0.05% BRIJ-35) and compound at desired concentration prepared in DMSO such that the final DMSO is 1%. […] Typically, assay plates are prepared to 10 μl final volume per sample, adding 2.5 μl of compound at 4× the desired concentration in 4% DMSO (serial dilution of compound provides concentration curve), 5 μl of the desired kinase mixed with Z′-LYTE™ peptide substrate (2× in 2× kinase buffer, final peptide at 2 μM), and 2.5 μl of 4×ATP solution. All kinase except for MAP2K1 were at 10 μM ATP in the kinase reaction, while MAP2K1 was at 100 μM. Samples are mixed and the kinase reaction is incubated 1 hour at room temperature, after which 5 μl of development solution is added and mixed. After incubation for another 1 hour at room temperature, 5 μl of stop reagent is added to each sample and mixed. The fluorescence signals are measured to determine the emission ratio.

Btk = molecular target: T4, Btk (Homo sapiens, UniProt Q06187); assay: Z'-Lyte FRET kinase assay (Invitrogen), Btk; conditions: read-out: IC50, activity toward kinase Btk
T4 construct: purchased Invitrogen (assay run by Invitrogen)
T4 sequence (Q06187 whole entry): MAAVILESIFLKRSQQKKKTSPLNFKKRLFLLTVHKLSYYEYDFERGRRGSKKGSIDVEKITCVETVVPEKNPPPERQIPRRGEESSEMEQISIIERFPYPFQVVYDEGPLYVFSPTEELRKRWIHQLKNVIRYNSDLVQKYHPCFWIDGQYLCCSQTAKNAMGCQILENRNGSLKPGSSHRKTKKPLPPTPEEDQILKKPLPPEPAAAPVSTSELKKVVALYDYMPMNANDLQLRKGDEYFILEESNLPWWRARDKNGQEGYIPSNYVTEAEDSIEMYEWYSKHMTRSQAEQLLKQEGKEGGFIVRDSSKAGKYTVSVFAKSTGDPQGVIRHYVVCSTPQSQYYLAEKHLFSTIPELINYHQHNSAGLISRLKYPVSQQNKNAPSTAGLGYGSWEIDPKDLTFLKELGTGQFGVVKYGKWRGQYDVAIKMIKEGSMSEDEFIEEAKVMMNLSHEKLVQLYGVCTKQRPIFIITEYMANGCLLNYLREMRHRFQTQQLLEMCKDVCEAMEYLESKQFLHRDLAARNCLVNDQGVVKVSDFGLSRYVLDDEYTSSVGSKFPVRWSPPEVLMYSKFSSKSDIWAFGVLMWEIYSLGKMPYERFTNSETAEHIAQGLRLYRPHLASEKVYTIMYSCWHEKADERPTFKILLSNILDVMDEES

B-Raf = molecular target: T5, B-Raf (Homo sapiens, UniProt P15056); assay: AlphaScreen kinase assay, B-Raf; conditions: read-out: IC50, activity toward kinase B-Raf
T5 construct: purchased Upstate Biotechnology
T5 sequence (P15056 whole entry): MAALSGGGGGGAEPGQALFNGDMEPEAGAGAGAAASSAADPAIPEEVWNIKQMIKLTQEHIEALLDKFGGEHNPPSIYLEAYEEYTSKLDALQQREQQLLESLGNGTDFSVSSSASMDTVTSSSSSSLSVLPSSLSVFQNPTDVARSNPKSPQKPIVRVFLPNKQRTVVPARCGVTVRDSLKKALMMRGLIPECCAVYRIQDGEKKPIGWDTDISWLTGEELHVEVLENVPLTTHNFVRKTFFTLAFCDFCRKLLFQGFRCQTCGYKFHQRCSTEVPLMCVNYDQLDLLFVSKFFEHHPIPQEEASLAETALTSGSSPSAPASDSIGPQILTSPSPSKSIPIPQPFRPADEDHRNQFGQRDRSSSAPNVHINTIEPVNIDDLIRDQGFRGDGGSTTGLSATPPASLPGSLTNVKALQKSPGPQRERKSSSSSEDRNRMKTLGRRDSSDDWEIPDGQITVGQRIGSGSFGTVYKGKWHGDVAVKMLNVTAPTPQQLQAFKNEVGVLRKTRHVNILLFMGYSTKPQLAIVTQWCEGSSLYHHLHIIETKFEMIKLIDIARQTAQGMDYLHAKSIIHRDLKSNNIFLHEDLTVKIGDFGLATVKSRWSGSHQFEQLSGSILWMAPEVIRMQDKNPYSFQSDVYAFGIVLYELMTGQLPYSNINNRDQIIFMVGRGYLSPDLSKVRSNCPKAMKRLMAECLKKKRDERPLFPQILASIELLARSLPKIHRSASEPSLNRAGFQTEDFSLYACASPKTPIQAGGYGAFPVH
From the text: AlphaScreen assay was used to screen additional kinases. The assay is similarly dependent on the phosphorylation of a peptide substrate. In this assay, an antibody that recognizes phosphorylated substrate is bound to an acceptor bead. The peptide substrate is attached to biotin, which binds to a donor head that contains streptavidin. Thus phosphorylated substrate is bound by antibody and streptavidin, bringing the donor and acceptor heads into close proximity when kinase is not inhibited. The donor produces singlet oxygen which results in emission from the acceptor when they are in close proximity. Conversely, when kinase is inhibited, the donor and acceptor beads are not associated and the emission from the acceptor is reduced.
AlphaScreen assays were done using compounds dissolved in DMSO to a concentration of 20 mM. The compounds were diluted accordingly to the desired final concentrations in each sample well, using 1:3 serial dilution for a total of 8 concentration points. Plates were prepared such that each kinase reaction is 20 μl in 1× kinase buffer, 5% DMSO and 10 μM ATP. After incubation of the kinase reaction for 1 hour at room temperature, 5 μl of donor beads in stop buffer (50 mM EDTA in 1× kinase buffer) was added, the sample was mixed and incubated for 20 minutes at room temperature before adding 5 μl of acceptor beads in stop buffer. The samples were incubated for 60 minutes at room temperature and the signal per well was read on AlphaQuest reader.

Kdr = molecular target: T6, Kdr (Homo sapiens, UniProt P35968); assay: Z'-Lyte FRET kinase assay (Invitrogen), Kdr; conditions: read-out: IC50, activity toward kinase Kdr
T6 construct: purchased Invitrogen (assay run by Invitrogen)
T6 sequence (P35968 20-1356): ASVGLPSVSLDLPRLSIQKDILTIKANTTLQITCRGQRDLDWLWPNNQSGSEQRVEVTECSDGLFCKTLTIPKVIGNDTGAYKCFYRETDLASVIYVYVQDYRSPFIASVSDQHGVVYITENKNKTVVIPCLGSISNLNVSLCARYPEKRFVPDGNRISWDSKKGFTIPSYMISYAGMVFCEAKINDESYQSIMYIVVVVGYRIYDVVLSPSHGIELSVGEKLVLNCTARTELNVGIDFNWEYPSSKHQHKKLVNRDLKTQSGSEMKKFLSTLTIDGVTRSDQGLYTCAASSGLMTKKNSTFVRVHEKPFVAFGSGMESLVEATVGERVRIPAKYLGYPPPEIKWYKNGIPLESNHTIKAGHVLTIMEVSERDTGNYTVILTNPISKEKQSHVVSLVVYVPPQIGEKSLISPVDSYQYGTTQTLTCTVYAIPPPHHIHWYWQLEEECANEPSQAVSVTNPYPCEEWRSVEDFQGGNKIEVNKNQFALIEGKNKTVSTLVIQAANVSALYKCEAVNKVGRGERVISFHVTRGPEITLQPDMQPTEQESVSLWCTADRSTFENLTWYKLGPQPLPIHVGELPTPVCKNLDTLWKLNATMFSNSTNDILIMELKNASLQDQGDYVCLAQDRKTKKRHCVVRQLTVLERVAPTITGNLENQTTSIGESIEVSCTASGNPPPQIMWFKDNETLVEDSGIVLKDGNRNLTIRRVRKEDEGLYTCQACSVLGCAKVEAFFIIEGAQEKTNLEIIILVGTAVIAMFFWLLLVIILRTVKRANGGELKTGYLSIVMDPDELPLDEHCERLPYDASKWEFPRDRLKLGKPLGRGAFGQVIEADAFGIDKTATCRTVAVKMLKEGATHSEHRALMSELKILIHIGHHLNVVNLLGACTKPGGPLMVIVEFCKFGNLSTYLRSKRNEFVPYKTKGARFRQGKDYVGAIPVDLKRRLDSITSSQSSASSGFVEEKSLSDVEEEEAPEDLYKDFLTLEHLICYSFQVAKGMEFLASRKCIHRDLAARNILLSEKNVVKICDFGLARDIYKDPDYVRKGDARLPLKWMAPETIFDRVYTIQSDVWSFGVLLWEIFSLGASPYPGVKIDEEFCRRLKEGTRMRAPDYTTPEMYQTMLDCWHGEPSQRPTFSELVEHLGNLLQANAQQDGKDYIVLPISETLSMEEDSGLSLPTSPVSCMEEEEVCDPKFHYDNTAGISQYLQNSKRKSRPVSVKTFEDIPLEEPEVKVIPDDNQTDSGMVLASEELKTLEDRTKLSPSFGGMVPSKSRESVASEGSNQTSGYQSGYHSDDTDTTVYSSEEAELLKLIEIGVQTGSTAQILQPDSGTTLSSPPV

Jnk3 = molecular target: T7, Jnk3 (Homo sapiens, UniProt P53779); assay: AlphaScreen kinase assay, Jnk3; conditions: read-out: IC50, activity toward kinase Jnk3
T7 construct: purchased Upstate Biotechnology

Ret = molecular target: T8, Ret (Homo sapiens, UniProt P07949); assay: AlphaScreen kinase assay, Ret; conditions: read-out: IC50, activity toward kinase Ret
T8 construct: P1378.pET-SF BI-PTP RET H661-R1012 HIS; made in house
T8 sequence (P07949 with tags, fused parts or gaps): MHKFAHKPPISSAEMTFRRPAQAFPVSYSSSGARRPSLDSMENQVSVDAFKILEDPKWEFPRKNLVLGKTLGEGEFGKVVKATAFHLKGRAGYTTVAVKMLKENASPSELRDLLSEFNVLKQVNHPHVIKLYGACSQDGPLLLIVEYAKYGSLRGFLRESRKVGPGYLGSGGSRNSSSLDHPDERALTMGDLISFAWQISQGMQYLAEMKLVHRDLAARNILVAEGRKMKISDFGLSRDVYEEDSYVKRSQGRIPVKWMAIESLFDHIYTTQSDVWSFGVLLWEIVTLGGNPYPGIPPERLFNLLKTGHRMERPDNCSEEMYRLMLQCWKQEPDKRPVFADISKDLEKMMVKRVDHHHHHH

Kit = molecular target: T9, Kit (Homo sapiens, UniProt P10721); assay: AlphaScreen kinase assay, Kit; conditions: read-out: IC50, activity toward kinase Kit
T9 construct: P1332.N6 BI PTP KIT M552-K948-X COD; His6 (N); made in house; host or cells: E. coli (PTP1B co-expressed)

FGFR1 = molecular target: T10, FGFR1 (Homo sapiens, UniProt P11362, C488A/C584S); assay: AlphaScreen kinase assay, FGFR1; conditions: read-out: IC50, activity toward kinase FGFR
T10 construct: P1351.pET N6 BI-PTP FGFR A458-E765-X C488A, C584S; made in house; host or cells: E. coli (PTP1B co-expressed)
T10 sequence (P11362 458-765 C488A/C584S): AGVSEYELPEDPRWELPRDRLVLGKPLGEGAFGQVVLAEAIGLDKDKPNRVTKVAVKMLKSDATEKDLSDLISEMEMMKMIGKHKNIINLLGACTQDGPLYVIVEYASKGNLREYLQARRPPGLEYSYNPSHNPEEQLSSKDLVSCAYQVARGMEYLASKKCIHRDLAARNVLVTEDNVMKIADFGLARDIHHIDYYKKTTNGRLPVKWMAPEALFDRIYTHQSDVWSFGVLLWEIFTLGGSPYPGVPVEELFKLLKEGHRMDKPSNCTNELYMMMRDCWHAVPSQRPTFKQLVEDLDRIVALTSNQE

Stk6 = molecular target: T11, Stk6 (Homo sapiens, UniProt O14965); assay: Z'-Lyte FRET kinase assay (Invitrogen), Stk6; conditions: read-out: IC50, activity toward kinase Stk6
T11 construct: purchased Invitrogen (Carlsbad, Calif.), screening service
T11 sequence (O14965 1-403): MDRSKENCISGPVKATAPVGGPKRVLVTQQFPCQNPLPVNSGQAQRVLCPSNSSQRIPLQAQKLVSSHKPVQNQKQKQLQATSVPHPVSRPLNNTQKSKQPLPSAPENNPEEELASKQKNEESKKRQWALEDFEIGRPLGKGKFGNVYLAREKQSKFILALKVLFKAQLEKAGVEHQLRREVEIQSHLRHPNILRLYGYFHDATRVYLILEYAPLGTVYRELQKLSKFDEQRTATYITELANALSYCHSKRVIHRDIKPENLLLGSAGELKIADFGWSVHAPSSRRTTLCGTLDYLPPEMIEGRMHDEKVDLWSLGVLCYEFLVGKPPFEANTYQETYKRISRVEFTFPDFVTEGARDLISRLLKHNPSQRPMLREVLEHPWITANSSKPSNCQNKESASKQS

Fms = molecular target: T12, Fms (Homo sapiens, UniProt P07333); assay: AlphaScreen kinase assay, Fms; conditions: read-out: IC50, activity toward kinase Fms
T12 construct: purchased Upstate Biotechnology
T12 sequence (P07333 20-972): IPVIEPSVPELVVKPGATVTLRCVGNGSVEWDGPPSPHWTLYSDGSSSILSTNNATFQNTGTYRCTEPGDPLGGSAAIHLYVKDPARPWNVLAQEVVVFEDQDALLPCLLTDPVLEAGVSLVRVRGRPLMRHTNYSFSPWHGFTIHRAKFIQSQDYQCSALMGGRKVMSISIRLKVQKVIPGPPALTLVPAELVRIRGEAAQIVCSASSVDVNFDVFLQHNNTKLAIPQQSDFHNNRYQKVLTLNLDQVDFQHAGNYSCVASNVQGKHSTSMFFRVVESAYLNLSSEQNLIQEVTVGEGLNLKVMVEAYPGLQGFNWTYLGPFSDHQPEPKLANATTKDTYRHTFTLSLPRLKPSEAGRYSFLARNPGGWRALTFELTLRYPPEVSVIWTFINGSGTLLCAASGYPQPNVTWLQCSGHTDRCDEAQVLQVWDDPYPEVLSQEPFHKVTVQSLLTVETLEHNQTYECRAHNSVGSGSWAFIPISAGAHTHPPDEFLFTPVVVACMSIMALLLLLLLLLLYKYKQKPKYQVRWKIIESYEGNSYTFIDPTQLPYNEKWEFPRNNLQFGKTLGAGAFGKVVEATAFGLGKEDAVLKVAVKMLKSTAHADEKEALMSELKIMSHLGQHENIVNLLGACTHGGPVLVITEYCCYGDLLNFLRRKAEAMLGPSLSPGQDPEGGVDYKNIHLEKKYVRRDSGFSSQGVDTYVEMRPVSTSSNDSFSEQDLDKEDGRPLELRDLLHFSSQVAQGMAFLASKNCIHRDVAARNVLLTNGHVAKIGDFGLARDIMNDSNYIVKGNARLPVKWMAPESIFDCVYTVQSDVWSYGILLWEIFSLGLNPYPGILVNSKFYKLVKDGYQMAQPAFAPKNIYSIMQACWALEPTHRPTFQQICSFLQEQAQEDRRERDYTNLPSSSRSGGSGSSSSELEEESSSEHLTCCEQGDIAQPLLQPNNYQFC

Measured: IC50

T1 sequence (P07947 whole entry): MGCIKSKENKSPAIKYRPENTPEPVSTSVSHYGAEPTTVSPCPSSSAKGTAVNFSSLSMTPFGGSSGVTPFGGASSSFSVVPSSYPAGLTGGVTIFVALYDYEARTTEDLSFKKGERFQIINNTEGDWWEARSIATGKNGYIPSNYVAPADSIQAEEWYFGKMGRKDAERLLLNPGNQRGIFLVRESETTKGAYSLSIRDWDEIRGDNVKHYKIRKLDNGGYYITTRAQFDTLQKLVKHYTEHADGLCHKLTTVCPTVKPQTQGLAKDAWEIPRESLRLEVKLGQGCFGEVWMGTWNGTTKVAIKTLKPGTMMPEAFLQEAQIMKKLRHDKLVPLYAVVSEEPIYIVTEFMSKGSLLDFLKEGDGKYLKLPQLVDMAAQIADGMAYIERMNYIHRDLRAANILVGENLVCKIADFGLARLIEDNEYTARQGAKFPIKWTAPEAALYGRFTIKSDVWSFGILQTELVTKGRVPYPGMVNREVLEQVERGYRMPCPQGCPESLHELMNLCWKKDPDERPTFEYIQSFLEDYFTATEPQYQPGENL

O=C(c1ccccc1F)c1c[nH]c2nccc(-c3cccnc3)c12 [Compound P-0062]
≤ 10 µM: Yes | B-Raf V600E | EphB2

CCc1cnc2[nH]cc(C(=O)c3cccc(O)c3)c2c1 [Compound P-0059]
not listed: Stk6 | Fms
≤ 10 µM: all other assays above

COc1ccc(-c2ccnc3[nH]cc(C(=O)c4cccc(Cl)c4Cl)c23)cn1 [Compound P-0107]
≤ 10 µM: Yes | Btk | Kdr | B-Raf V600E | Ret | EphB2

CC(=O)Nc1cccc(-c2ccnc3[nH]cc(C(=O)c4cccc(Cl)c4Cl)c23)c1 [Compound P-0186]
≤ 10 µM: B-Raf V600E | Ret | EphB2

NC(=O)c1cccc(-c2ccnc3[nH]cc(C(=O)c4cccc(Cl)c4Cl)c23)c1 [Compound P-0139]
≤ 10 µM: Yes | Btk | Kdr | B-Raf V600E | Ret | EphB2

O=C(c1cccc(Cl)c1Cl)c1c[nH]c2nccc(-c3cccnc3)c12 [Compound P-0043]
not listed: B-Raf | Jnk3 | Kit | Fms
≤ 10 µM: all other assays above

Brc1cnc2[nH]cc(Sc3ccccc3)c2c1 [Compound P-0125]
≤ 10 µM: Yes | Btk | Kdr | EphB2

COC(c1c(F)ccc(O)c1F)c1c[nH]c2ncc(Br)cc12 (centres unmarked) [Compound P-0126, 3-[(5-Bromo-1H-pyrrolo[2,3-b]pyridin-3-yl)-methoxy-methyl]-2,4-difluoro-phenol]
≤ 10 µM: Yes | B-Raf | Kdr | B-Raf V600E | EphB2

COc1cccc(Sc2c[nH]c3ncc(Br)cc23)c1 [Compound P-0145]
≤ 10 µM: Yes | Btk | Kdr | Fms | EphB2
